Our source for the Ki values is publication PMC2671622 (Journal of Experimental Botany, 2009).

The target in the test is truncated recombinant AtGABA-T (no-target GABA-T) (Arabidopsis thaliana, UniProt Q94CE5). Put plainly: coupled SSADH assay, NADH at […] nm. The test is classed as biochemical.
truncated recombinant AtGABA-T (no-target GABA-T), sequence (Q94CE5 37-504): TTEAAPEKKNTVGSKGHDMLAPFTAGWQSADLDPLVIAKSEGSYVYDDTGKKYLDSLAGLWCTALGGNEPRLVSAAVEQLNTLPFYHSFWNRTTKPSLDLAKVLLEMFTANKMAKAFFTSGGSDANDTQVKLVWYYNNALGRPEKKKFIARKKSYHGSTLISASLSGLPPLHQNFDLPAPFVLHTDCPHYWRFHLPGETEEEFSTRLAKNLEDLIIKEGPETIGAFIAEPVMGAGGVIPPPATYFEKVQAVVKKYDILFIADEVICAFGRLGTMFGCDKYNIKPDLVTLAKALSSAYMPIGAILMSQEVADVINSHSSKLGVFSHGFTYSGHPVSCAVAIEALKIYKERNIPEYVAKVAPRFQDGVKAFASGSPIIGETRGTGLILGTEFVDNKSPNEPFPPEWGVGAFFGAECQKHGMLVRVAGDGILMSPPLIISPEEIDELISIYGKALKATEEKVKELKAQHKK
Consider `C=CC(N)CCC(=O)O` (stereo not shown) [Vigabatrin], for which the inhibition constant Ki (usually a measure of affinity in units of concentration, obtained from inhibition or displacement) stood at 620 ± 160 µM.

Regarding `NCCC(=O)O` [β-Alanine], the inhibitory constant (Ki) came out at 550 ± 130 µM.

With `NCCC[C@H](N)C(=O)O` [Ornithine], the Ki was found to be 460 ± 120 µM.

For the compound `NCC(=O)O` [Glycine], the Ki was 3700 ± 460 µM.
